Measurements as given in patent US7745450B2, “Pyrazolo[4,3-d]pyrimidines, processes for their preparation and methods for therapy” (Institute of Experimental Botany, priority 2002, dated 2010).
Where two headings read alike, the source gives them in different places.

Assays:
[1] = system: CEM (human lymphoblastoid leukemia); assay: In vitro cytotoxic activity, Calcein AM; assay type: cell-based; settings: Homo sapiens, 72 h, three days
Experimental: We have been using the following cell lines: HELA (human cervical carcinoma), MCF7 (human breast adenocarcinoma), NIH 3T3 (mouse fibroblasts), HOS (human osteogenic sarcoma), HL 60 (human promyelocytic leukemia), G 361 (human malignant melanoma), K562 (human erythroleukemia), CEM (human lymphoblastoid leukemia). Tested drugs were added to the cell cultures in six different concentration and kept at 37° C. and 5% CO2 for three days. All cell lines were grown in DMEM medium (Gibco BRL) supplemented with 10% (v/v) fetal bovine serum and L-glutamine and maintained at 37° C. in a humidified atmosphere with 5% CO2. 10^4 cells were seeded into each well of 96 well plate, allowed to stabilize for at least 2 h and then tested compounds were added at various concentrations ranging from 200 to 0.2 μM in triplicates. Three days after drug addition Calcein AM solution (Molecular Probes) was added and let to enter the cells for 1 hour. Fluorescence of viable cells was quantified employing Fluoroskan Ascent (Microsystems).

B16 = assay: In vitro cytotoxic activity, Calcein AM; assay type: cell-based; settings: Mus musculus, B16, 72 h, three days
MMK1 protein kinase = MMK1 protein kinase (Vicia faba, UniProt A0AAV1B7B8); assay: MMK1 protein kinase activity; assay type: biochemical
Experimental: Protein extraction and purification of pant CDK by binding to p13^suc1-beads or immunopurification with an antibody specific to the cdc2a-MS protein was carried out as described previously (Bögre et al. 1997, Plant Physiol. 113, 1997, 841-852). The MMK1 protein kinase was purified with a specific antibody from Vicia faba extracts as described by Bögre et al. 1997a, Plant Cell 9, 75-83). Protein kinase activity was measures as described above in Example 20. The quantification of radioactivity incorporated into histone H1 or myelin basic protein was undertaken using phosphoimager (FIG. 2).

IκB-α kinase = IκB-α kinase inhibition, in vitro kinase assay; assay type: biochemical
cdk1/cyclin B (CDC2) = cdk1/cyclin B (CDC2) (Homo sapiens, UniProt P06493); assay: CDK inhibition assay, cdk1/cyclin B (CDC2) kinase, histone phosphorylation; assay type: biochemical
Experimental: Selected compounds were tested for cdk1/cyclin B and cdk2/cyclin E inhibitory activity to determine the basic relationships between their interaction energy of docked complex and the inhibitory activity. Cdk2/cyclin E complex was produced in SIP insect cells co-infected with appropriate baculoviral construct. The cells were harvested 70 hours post infection in lysis buffer (50 mM Tris 7.4 pH, 150 mM NaCl, 5 mM EDTA, 20 mM NaF, 1% Tween 20, protease inhibitors) for 30 min on ice and the soluble fraction was recovered by centrifugation at 14.000 g for 10 min. The protein extract was stored at −80° C. until use. The final point test system for kinase activity measurement was used to carry out experiments on the kinetics under linear conditions. The assay mixture contained 1 mg/ml histone (Sigma Type III-S), 15 μM ATP, 0.2 μCi [γ-^32P] ATP and tested compound in a final volume of 20 μl, all in reaction buffer: 50 mM Hepes 7.4 pH, 10 mM MgCl2, 5 mM EGTA, 10 mM 2-glycerolphosphate, 1 mM NaF, 1 mM DTT and protease inhibitors. […] The measurement of kinase inhibition employed the digital imaging analyzer BAS 1800. The kinase activity was expressed as a percentage of maximum activity and the IC50 value was determined by graphic analysis. The kinase activity is expressed as a percentage of maximum activity, the apparent inhibition constants are determined by graphic analysis from dose-response curves presented on FIG. 1.

[2] = system: Cytokinin-dependent tobacco callus Nicotiana tabacum L. cv. Wisconsins 38; assay: Tobacco callus bioassay for cytotoxicity (herbicidal activity); assay type: cell-based; settings: Nicotiana tabacum, 672 h
Experimental: The novel compounds have also been tested in tobacco callus bioassay for cytotoxicity (herbicidal activity) and induction of cell death. The compounds to be tested were dissolved in dimethylsulfoxide (DMSO) and the solution brought up to 10^−3 M with distilled water. […] Cytokinin-dependent tobacco callus Nicotiana tabacum L. cv. Wisconsins 38 Murashige-Skoog medium, containing per 1 liter: 4 μmol nicotinic acid, 2.4 μmol pyridoxine hydrochloride, 1.2 μmol thiamine, 26.6 μmol glycine, 1.37 μmol glutamine, 1.8 μmol myo.inositol, 30 g of sucrose, 8 g of agar, […] α-naphthylacetic acid and 0.5 μmol 6-benzylaminopurine. Sub cultivation was carried out every three weeks. Fourteen days before the bioassay, the callus tissue was transferred to the media without 6-benzylaminopurine. Compounds were tested with two different concentrations of 6-benzylaminopurine (10^−5 M and 10^−6 M). Inhibitory growth activity was determined from the increase in fresh callus weight after four weeks of cultivation. Five replicates were prepared for each concentration tested and the entire test was repeated at least twice.

[3] = read-out: 10^−5 M BAP IC50, 10^−5 M 6-benzylaminopurine, four weeks
[4] = read-out: 10^−6 M BAP IC50, 10^−6 M 6-benzylaminopurine, four weeks

Chain of cdk1/cyclin B (CDC2) (P06493 whole entry, species assumed): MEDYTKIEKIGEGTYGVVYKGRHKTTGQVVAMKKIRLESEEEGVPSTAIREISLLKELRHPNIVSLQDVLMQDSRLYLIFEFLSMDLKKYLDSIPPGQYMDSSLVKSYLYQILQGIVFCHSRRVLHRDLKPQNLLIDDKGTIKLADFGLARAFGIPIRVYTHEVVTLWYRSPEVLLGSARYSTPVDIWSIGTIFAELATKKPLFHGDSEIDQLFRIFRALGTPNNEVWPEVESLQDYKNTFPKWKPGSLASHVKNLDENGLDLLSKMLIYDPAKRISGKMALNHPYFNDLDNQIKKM
Chain of cdk1/cyclin B (CDC2) (P14635 whole entry partner, species assumed): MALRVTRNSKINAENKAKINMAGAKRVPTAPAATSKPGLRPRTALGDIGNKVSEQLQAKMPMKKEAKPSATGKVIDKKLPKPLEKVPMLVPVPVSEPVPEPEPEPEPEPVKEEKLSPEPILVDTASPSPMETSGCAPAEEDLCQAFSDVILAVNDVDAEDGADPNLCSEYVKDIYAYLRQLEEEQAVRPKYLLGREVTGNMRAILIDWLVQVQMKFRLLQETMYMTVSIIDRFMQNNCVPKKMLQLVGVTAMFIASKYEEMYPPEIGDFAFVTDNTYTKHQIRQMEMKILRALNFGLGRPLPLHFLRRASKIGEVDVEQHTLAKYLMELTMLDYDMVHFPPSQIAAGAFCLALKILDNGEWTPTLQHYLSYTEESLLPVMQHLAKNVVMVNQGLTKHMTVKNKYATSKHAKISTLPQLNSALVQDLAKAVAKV
Chain of MMK1 protein kinase (A0AAV1B7B8 1-394): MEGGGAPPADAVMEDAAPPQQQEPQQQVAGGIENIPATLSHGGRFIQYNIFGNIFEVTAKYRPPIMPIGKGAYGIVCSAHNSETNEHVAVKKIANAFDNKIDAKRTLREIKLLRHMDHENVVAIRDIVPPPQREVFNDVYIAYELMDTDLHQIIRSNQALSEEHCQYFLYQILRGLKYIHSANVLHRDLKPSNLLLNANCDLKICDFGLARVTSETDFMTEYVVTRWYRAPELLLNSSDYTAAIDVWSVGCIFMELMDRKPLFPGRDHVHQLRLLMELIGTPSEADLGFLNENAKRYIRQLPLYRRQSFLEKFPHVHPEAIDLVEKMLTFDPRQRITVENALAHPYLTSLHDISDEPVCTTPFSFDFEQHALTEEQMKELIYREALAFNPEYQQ

Row | Compound | IC50 (MMK1 protein kinase) | IC50 (IκB-α kinase) | IC50 (cdk1/cyclin B (CDC2)) | GI50 [1] | GI50 (B16) | IC50 [2, 3] | IC50 [2, 4]
1 | CC(C)c1n[nH]c2c(NCc3ccc(Cl)c(N)c3N)nc(N[C@@H](CO)C(C)C)nc12 | 40 nM |  |  | 8.2 µM | 12.4 µM |  | 
2 | CC(=O)c1ccccc1CNc1nc(N[C@@H](CO)C(C)C)nc2c(C(C)C)n[nH]c12 | 50 nM |  |  | 14.5 µM | 18.2 µM |  | 
3 | CC(=O)Oc1ccccc1CNc1nc(N[C@@H](CO)C(C)C)nc2c(C(C)C)n[nH]c12 | 12 nM |  |  | 8.7 µM | 10.9 µM |  | 
4 | COc1cc(O)c(CNc2nc(NCCO)nc3c(C)n[nH]c23)c(O)c1 | 90 nM |  |  | 2.8 µM | 4.7 µM |  | 
5 | COc1cccc(CNc2nc(NCCO)nc3c(C)n[nH]c23)c1O | 450 nM |  |  | 3.5 µM | 4.2 µM |  | 
6 | Cc1n[nH]c2c(NCc3ccccc3O)nc(NCCO)nc12 | 410 nM |  |  | 5.6 µM | 8.2 µM |  | 
7 | Cc1n[nH]c2c(Nc3cc(N)cc(Cl)c3)nc(NCCO)nc12 | 300 nM |  |  | 13.4 µM | 14.5 µM |  | 
8 | Cc1n[nH]c2c(NCc3cccc(O)c3)nc(NCCO)nc12 | 840 nM |  |  | 9.4 µM | 10.2 µM |  | 
9 | CC[C@H](CO)Nc1nc(NCc2cccc(OC)c2O)c2[nH]nc(C(C)C)c2n1 | 12 nM |  |  | 3.1 µM | 6.2 µM |  | 
10 | CC[C@H](CO)Nc1nc(NCc2cccc(OC(C)=O)c2)c2[nH]nc(C(C)C)c2n1 | 400 nM |  |  | 18.5 µM | 23.7 µM |  | 
11 | CC[C@H](CO)Nc1nc(NCc2ccc(Cl)c(N)c2N)c2[nH]nc(C(C)C)c2n1 | 400 nM |  |  | 4.6 µM | 9.9 µM |  | 
12 | CC[C@H](CO)Nc1nc(N(C)CCc2ccc(O)c(O)c2)c2[nH]nc(C(C)C)c2n1 | 1500 nM |  |  | 13.1 µM | 18.6 µM |  | 
13 | CC[C@H](CO)Nc1nc(NCc2ccccc2O)c2[nH]nc(C(C)C)c2n1 | 12 nM |  |  | 7.8 µM | 9.3 µM |  | 
14 | Cc1n[nH]c2c(NCc3ccc(Cl)c(N)c3N)nc(NCCO)nc12 | 2800 nM |  |  | 5.6 µM | 6.5 µM |  | 
15 | Cc1n[nH]c2c(N(C)Cc3ccc(O)c(O)c3)nc(NCCO)nc12 | 1950 nM |  |  | 10.3 µM | 11.5 µM |  | 
16 | Cc1n[nH]c2c(Nc3ccc(Cl)cc3)nc(NCCO)nc12 | 180 nM |  |  | 7.6 µM | 8.4 µM |  | 
17 | CC[C@H](CO)Nc1nc(NCc2cccc(C)c2O)c2[nH]nc(C(C)C)c2n1 | 14 nM |  |  | 1.9 µM | 2.1 µM |  | 
18 | CC[C@H](CO)Nc1nc(NCc2ccc(Cl)c(N)c2)c2[nH]nc(C(C)C)c2n1 | 24 nM |  |  | 11.4 µM | 18.7 µM |  | 
19 | CC(=O)Oc1cccc(CNc2nc(NCCO)nc3c(C)n[nH]c23)c1 | 3400 nM |  |  | 15.4 µM | 16.7 µM |  | 
20 | COc1cc(O)c(CNc2nc(NCCO)nc3c(C)n[nH]c23)cc1O | 160 nM |  |  | 4.2 µM | 3.7 µM |  | 
21 | CC(C)c1n[nH]c2c(NCc3ccc(O)c(O)c3)nc(N[C@@H](CO)C(C)C)nc12 | 310 nM |  |  | 4.2 µM | 5.8 µM |  | 
22 | Cc1n[nH]c2c(NCc3cc(O)c(Cl)cc3O)nc(NCCO)nc12 | 380 nM |  |  | 1.5 µM | 2.8 µM |  | 
23 | CC[C@H](CO)Nc1nc(NCc2ccccc2C(C)=O)c2[nH]nc(C(C)C)c2n1 | 15 nM |  |  | 11.9 µM | 16.3 µM |  | 
24 | Cc1n[nH]c2c(Nc3ccc(N)c(Cl)c3)nc(NCCO)nc12 | 250 nM |  |  | 16.2 µM | 17.5 µM |  | 
25 | CC[C@H](CO)Nc1nc(NCc2ccccc2)c2[nH]nc(C(C)C)c2n1 |  | 30 nM | 10 nM |  |  | > 50 µM | 28 µM
26 | CC[C@H](CO)Nc1nc(NCc2c(N)cccc2Cl)c2[nH]nc(C(C)C)c2n1 [listing 2 of 2 here] |  | 3.5 nM | 12 nM |  |  | > 50 µM | 29.7 µM
27 | CC(C)c1n[nH]c2c(Nc3ccc(O)c(C(=O)O)c3)nc(N[C@@H](CO)C(C)C)nc12 |  | 1 nM | 0.4 nM |  |  | 18 µM | 1.2 µM
28 | CC[C@H](CO)Nc1nc(Nc2ccc(Cl)c(N)c2)c2[nH]nc(C(C)C)c2n1 [listing 2 of 2 here] |  | 13 nM | 4 nM |  |  | 26 µM | 1.5 µM
29 | CC[C@H](CO)Nc1nc(NCc2ccccc2OC(C)=O)c2[nH]nc(C(C)C)c2n1 [listing 2 of 2 here] |  | 200 nM | 100 nM |  |  | 45 µM | 12.4 µM

Now from value to compound, other results behind:

Row | IC50 (MMK1 protein kinase) | IC50 (IκB-α kinase) | IC50 (cdk1/cyclin B (CDC2)) | Compound | GI50 [1] | GI50 (B16) | IC50 [2, 3] | IC50 [2, 4]
30 | 13 nM |  |  | CC[C@H](CO)Nc1nc(Nc2ccc(Cl)c(N)c2)c2[nH]nc(C(C)C)c2n1 [listing 1 of 2 here] | 4.7 µM | 7.5 µM |  | 
31 | 3300 nM |  |  | CC(=O)Oc1ccccc1CNc1nc(NCCO)nc2c(C)n[nH]c12 | 14.5 µM | 16.2 µM |  | 
32 | 200 nM |  |  | CC[C@H](CO)Nc1nc(NCc2ccccc2OC(C)=O)c2[nH]nc(C(C)C)c2n1 [listing 1 of 2 here] | 13.8 µM | 19.3 µM |  | 
33 | 300 nM |  |  | Cc1n[nH]c2c(Nc3ccc(Cl)c(C(=O)O)c3)nc(NCCO)nc12 | 6.5 µM | 7.2 µM |  | 
34 | 24000 nM |  |  | Cc1n[nH]c2c(NCc3ccc(O)c(O)c3)nc(NCCO)nc12 | 15.5 µM | 18.7 µM |  | 
35 | 860 nM |  |  | Cc1n[nH]c2c(NCc3c(N)cccc3Cl)nc(NCCO)nc12 | 5.8 µM | 7.2 µM |  | 
36 | 30 nM |  |  | CC[C@H](CO)Nc1nc(Nc2ccc(O)c(C(=O)O)c2)c2[nH]nc(C(C)C)c2n1 | 18.4 µM | 25.8 µM |  | 
37 | 290 nM |  |  | COc1ccc(CNc2nc(NCCO)nc3c(C)n[nH]c23)c(O)c1O | 3.5 µM | 4.2 µM |  | 
38 | 400 nM |  |  | CC(=O)c1ccccc1CNc1nc(NCCO)nc2c(C)n[nH]c12 | 10.8 µM | 9.3 µM |  | 
39 | 340 nM |  |  | Cc1cccc(CNc2nc(NCCO)nc3c(C)n[nH]c23)c1O | 2.8 µM | 3.1 µM |  | 
40 | 210 nM |  |  | CCC(CO)Nc1nc(NC(CO)c2ccccc2)c2[nH]nc(C(C)C)c2n1 (stereo not drawn) | 7.9 µM | 13.7 µM |  | 
41 | 20 nM |  |  | CC[C@H](CO)Nc1nc(Nc2cc(N)cc(Cl)c2)c2[nH]nc(C(C)C)c2n1 | 9.4 µM | 16.5 µM |  | 
42 | 900 nM |  |  | CC(=O)c1cccc(CNc2nc(NCCO)nc3c(C)n[nH]c23)c1 | 13.5 µM | 14.2 µM |  | 
43 | 900 nM |  |  | Cc1n[nH]c2c(Nc3cccc(Cl)c3)nc(NCCO)nc12 | 8.9 µM | 9.8 µM |  | 
44 | 510 nM |  |  | CC[C@H](CO)Nc1nc(N(C)Cc2ccc(O)c(O)c2)c2[nH]nc(C(C)C)c2n1 | 11.6 µM | 19.4 µM |  | 
45 | 3.5 nM |  |  | CC[C@H](CO)Nc1nc(NCc2c(N)cccc2Cl)c2[nH]nc(C(C)C)c2n1 [listing 1 of 2 here] | 4.6 µM | 8.3 µM |  | 
46 | 240 nM |  |  | Cc1n[nH]c2c(Nc3ccc(Cl)c(N)c3)nc(NCCO)nc12 | 5.7 µM | 6.4 µM |  | 
47 |  | 12 nM | 1 nM | CC(C)c1n[nH]c2c(Nc3cccc(Cl)c3)nc(NC3CCC(N)CC3)nc12 (stereo not drawn) |  |  | > 50 µM | 25 µM
